Measurements taken from patent US7741495B2, “Indoline-sulfonamides compounds” (Taipei Medical University, priority 2006, dated 2010).
Counter-ions that a name gives are not always drawn.

With `COc1ccc(S(=O)(=O)N2CCc3cccc(NC(=O)Oc4ccccc4)c32)cc1` the melting point was 164 to 166 °C. `COc1ccc(S(=O)(=O)N2CCc3cccc(NC(=O)c4ccncc4)c32)cc1` (as salt: HCl) [compound 26, N-[1-(4-Methoxy-benzenesulfonyl)-2,3-dihydro-1H-indol-7-yl]-isonicotin amide] gave a melting point of 219 to 220 °C. For `COc1ccc(S(=O)(=O)N2CCc3cccc(NC(=O)c4ccccc4)c32)cc1` [compound 20, N-[1-(4-Methoxy-benzenesulfonyl)-2,3-dihydro-1H-indol-7-yl]-benzamide], the melting point was 205 to 206 °C. Molecule `COc1ccc(S(=O)(=O)N2CCc3cccc(NC(=O)c4ccc(F)cc4)c32)cc1` [compound 21, 4-Fluoro-N-[1-(4-methoxy-benzenesulfonyl)-2,3-dihydro-1H-indol-7-yl]-benzamide] has a melting point of 184 to 185 °C. Work on `COc1ccc(S(=O)(=O)N2CCc3cccc(NC(=O)c4ccc([N+](=O)[O-])cc4)c32)cc1` [compound 22, N-[1-(4-Methoxy-benzenesulfonyl)-2,3-dihydro-1H-indol-7-yl]-4-nitro-benzamide] yielded a melting point of 151 to 152 °C. In the case of `COc1ccc(S(=O)(=O)N2CCc3cccc(NC(=O)c4ccc(C#N)cc4)c32)cc1` [compound 23, 4-Cyano-N-[1-(4-methoxy-benzenesulfonyl)-2,3-dihydro-1H-indol-7-yl]-benzamide], the melting point is reported as 179 to 180 °C. Molecule `COc1ccc(S(=O)(=O)N2CCc3cccc(NC(=O)c4ccco4)c32)cc1` [compound 27, Furan-2-carboxylic acid [1-(4-methoxy-benzenesulfonyl)-2,3-dihydro-1H-indol-7-yl]-amide] has a melting point of 163 to 164 °C. Molecule `COc1ccc(S(=O)(=O)N2CCc3cccc(NC(=O)c4cccs4)c32)cc1` [compound 28, Thiophene-2-carboxylic acid [1-(4-methoxy-benzenesulfonyl)-2,3-dihydro-1H-indol-7-yl]-amide] has a melting point of 188 to 189 °C. For `COc1ccc(S(=O)(=O)N2CCc3cccc(NS(=O)(=O)c4ccccc4)c32)cc1` [compound 29, N-[1-(4-Methoxy-benzenesulfonyl)-2,3-dihydro-1H-indol-7-yl]-benzenesulfonamide], the melting point was 143 to 145 °C. Molecule `COc1ccc(S(=O)(=O)N2CCc3cccc(NS(=O)(=O)c4ccc(F)cc4)c32)cc1` [compound 31, 4-Fluoro-N-[1-(4-methoxy-benzenesulfonyl)-2,3-dihydro-1H-indol-7-yl]-benzenesulfonamide] has a melting point of 104 to 105 °C. Work on `COc1ccc(S(=O)(=O)N2CCc3cccc(NC(=O)N(C)c4ccccc4)c32)cc1` [compound 33, 3-[1-(4-Methoxy-benzenesulfonyl)-2,3-dihydro-1H-indol-7-yl]-1-methyl-1-phenyl-urea] yielded a melting point of 199 to 201 °C. `COc1ccc(S(=O)(=O)N2CCc3cccc(NCc4ccccc4)c32)cc1` [compound 34, Benzyl-[1-(4-methoxy-benzenesulfonyl)-2,3-dihydro-1H-indol-7-yl]-amine] showed a melting point of 162 to 163 °C. With `COc1ccc(S(=O)(=O)N2CCc3cccc(NC(C)=O)c32)cc1` [compound 35, N-[1-(4-Methoxy-benzenesulfonyl)-2,3-dihydro-1H-indol-7-yl]acetamide] the melting point was 154 to 155 °C. `COc1ccc(S(=O)(=O)N2CCc3cc(Br)cc(NC(=O)c4ccncc4)c32)cc1` [compound 37, N-[5-Bromo-1-(4-methoxy-benzenesulfonyl)-2,3-dihydro-1H-indol-7-yl]-isonicotinamide] showed a melting point of 191 to 192 °C. In the case of `COc1ccc(S(=O)(=O)N2CCc3cc(Br)cc(NC(=O)c4ccco4)c32)cc1` [compound 38, Furan-2-carboxylic acid [5-bromo-1-(4-methoxy-benzenesulfonyl) -2,3-dihydro-1H-indol-7-yl]-amide], the melting point is reported as 170 to 171 °C.
